According to ChEMBL document CHEMBL3885861, “Open TG-GATES”:

Species: Rattus norvegicus
Assay: Open TG-GATES - Regimen: Single
Assay type: toxicity, organism-based, Sprague-Dawley
Set-up: regimen Single, gender Male, age 6 weeks
Details: in vivo, po, route gavage; for APTT / Bas / Eos / Fbg / Hb / Ht / Lym / MCH / MCHC / MCV / Mono / Neu / PT / Plat / RBC / Ret / WBC: tissue Blood; for KIDNEY_L / KIDNEY_R / KIDNEY_TOTAL: tissue Kidney; for LIVER: tissue Liver; for ALP / ALT / AST / BUN / CRE / Ca / Cl / DBIL / GLC / IP / K / LDH / Na / PL / RALB / TBIL / TC / TG / TP / gamma-GTP: tissue Plasma
[1] = 100 mg/kg, 3 h, dose level Middle
[2] = 100 mg/kg, 6 h, dose level Middle
[3] = 100 mg/kg, 9 h, dose level Middle
[4] = 100 mg/kg, 24 h, dose level Middle
[5] = 1000 mg/kg, 3 h, dose level High
[6] = 1000 mg/kg, 6 h, dose level High
[7] = 1000 mg/kg, 9 h, dose level High
[8] = 1000 mg/kg, 24 h, dose level High

## COc1cc([C@@H]2c3cc4c(cc3[C@@H](O[C@@H]3O[C@@H]5CO[C@@H](C)O[C@H]5[C@H](O)[C@H]3O)[C@H]3COC(=O)[C@H]23)OCO4)cc(OC)c1O [ETOPOSIDE]
[1]
  TERMINAL_BW: 196.5 g
  APTT: 17 s
  Bas: 0%
  Eos: 1%
  Fbg: 184.4 mg/dL
  Hb: 13.6 g/dL
  Ht: 40.5%
  Lym: 78.6%
  MCH: 21.7 pg
  MCHC: 33.7%
  MCV: 64.4 fL
  Mono: 8.2%
  Neu: 12.2%
  PT: 12.3 s
  Plat: 118 x10_4/uL
  RBC: 628.4 x10_4/ul
  Ret: 9.8%
  WBC: 104.2 x10_2/uL
  KIDNEY_L: 0.9 g
  KIDNEY_R: 0.9 g
  KIDNEY_TOTAL: 1.8 g
  LIVER: 9.1 g
  ALP: 1074.8 IU/L
  ALT: 36 IU/L
  AST: 69.4 IU/L
  BUN: 13.8 mg/dL
  CRE: 0.5 mg/dL
  Ca: 10.6 mg/dL
  Cl: 103.8 meq/L
  DBIL: 0.026 mg/dL
  GLC: 193 mg/dL
  IP: 9.6 mg/dL
  K: 4.3 meq/L
  LDH: 111 IU/L
  Na: 141.6 meq/L
  PL: 137.2 mg/dL
  RALB: 3.4 g/dL
  TBIL: 0.3 mg/dL
  TC: 78.6 mg/dL
  TG: 45.4 mg/dL
  TP: 5.2 g/dL
  gamma-GTP: 1.4 IU/L
[2]
  TERMINAL_BW: 198.5 g
  APTT: 17.4 s
  Bas: 0%
  Eos: 1%
  Fbg: 198 mg/dL
  Hb: 13.6 g/dL
  Ht: 40.5%
  Lym: 76.6%
  MCH: 21.9 pg
  MCHC: 33.7%
  MCV: 65.1 fL
  Mono: 9.8%
  Neu: 13%
  PT: 11.9 s
  Plat: 110.3 x10_4/uL
  RBC: 622 x10_4/ul
  Ret: 10%
  WBC: 69.6 x10_2/uL
  KIDNEY_L: 0.9 g
  KIDNEY_R: 0.9 g
  KIDNEY_TOTAL: 1.9 g
  LIVER: 8.9 g
  ALP: 933.8 IU/L
  ALT: 29.4 IU/L
  AST: 62.2 IU/L
  BUN: 11.4 mg/dL
  CRE: 0.6 mg/dL
  Ca: 10.7 mg/dL
  Cl: 105 meq/L
  DBIL: 0.02 mg/dL
  GLC: 196.2 mg/dL
  IP: 10.5 mg/dL
  K: 4.7 meq/L
  LDH: 98.4 IU/L
  Na: 141.6 meq/L
  PL: 137.8 mg/dL
  RALB: 3.3 g/dL
  TBIL: 0.4 mg/dL
  TC: 78 mg/dL
  TG: 40.2 mg/dL
  TP: 5.3 g/dL
  gamma-GTP: 0.8 IU/L
[3]
  TERMINAL_BW: 197 g
  APTT: 16.9 s
  Bas: 0%
  Eos: 1%
  Fbg: 206.8 mg/dL
  Hb: 13 g/dL
  Ht: 38.8%
  Lym: 77.8%
  MCH: 21.5 pg
  MCHC: 33.5%
  MCV: 64.3 fL
  Mono: 6.8%
  Neu: 14.6%
  PT: 11.2 s
  Plat: 109 x10_4/uL
  RBC: 604.2 x10_4/ul
  Ret: 8.2%
  WBC: 72.5 x10_2/uL
  KIDNEY_L: 0.9 g
  KIDNEY_R: 1 g
  KIDNEY_TOTAL: 1.9 g
  LIVER: 8.5 g
  ALP: 842.6 IU/L
  ALT: 33.4 IU/L
  AST: 63.6 IU/L
  BUN: 12.8 mg/dL
  CRE: 0.5 mg/dL
  Ca: 10.4 mg/dL
  Cl: 105.8 meq/L
  DBIL: 0.048 mg/dL
  GLC: 199 mg/dL
  IP: 10.6 mg/dL
  K: 4.6 meq/L
  LDH: 78.4 IU/L
  Na: 143.2 meq/L
  PL: 114 mg/dL
  RALB: 3.5 g/dL
  TBIL: 0.4 mg/dL
  TC: 67.6 mg/dL
  TG: 27.6 mg/dL
  TP: 5.4 g/dL
  gamma-GTP: 1.6 IU/L
[4]
  TERMINAL_BW: 207.9 g
  APTT: 16 s
  Bas: 0%
  Eos: 1%
  Fbg: 206 mg/dL
  Hb: 13.4 g/dL
  Ht: 39.8%
  Lym: 86.4%
  MCH: 21.4 pg
  MCHC: 33.7%
  MCV: 63.4 fL
  Mono: 4.8%
  Neu: 8%
  PT: 11.7 s
  Plat: 113.3 x10_4/uL
  RBC: 628.4 x10_4/ul
  Ret: 7.4%
  WBC: 74.6 x10_2/uL
  KIDNEY_L: 1 g
  KIDNEY_R: 1 g
  KIDNEY_TOTAL: 2 g
  LIVER: 9.3 g
  ALP: 999.2 IU/L
  ALT: 30.4 IU/L
  AST: 64.8 IU/L
  CRE: 0.5 mg/dL
  Ca: 10.9 mg/dL
  Cl: 104.8 meq/L
  DBIL: 0.028 mg/dL
  GLC: 192.4 mg/dL
  IP: 9.1 mg/dL
  K: 5 meq/L
  LDH: 94.6 IU/L
  Na: 140.6 meq/L
  PL: 134.4 mg/dL
  RALB: 3.6 g/dL
  TBIL: 0.3 mg/dL
  TC: 78.2 mg/dL
  TG: 60 mg/dL
  TP: 5.5 g/dL
  gamma-GTP: 1.2 IU/L
[5]
  TERMINAL_BW: 199.8 g
  APTT: 16.9 s
  Bas: 0%
  Eos: 1%
  Fbg: 194.6 mg/dL
  Hb: 13.4 g/dL
  Ht: 39.9%
  Lym: 75.2%
  MCH: 22.5 pg
  MCHC: 33.7%
  MCV: 66.6 fL
  Mono: 7.6%
  Neu: 16.2%
  PT: 12.1 s
  Plat: 113.8 x10_4/uL
  RBC: 599 x10_4/ul
  Ret: 9.6%
  WBC: 81.2 x10_2/uL
  KIDNEY_L: 0.9 g
  KIDNEY_R: 0.9 g
  KIDNEY_TOTAL: 1.8 g
  LIVER: 9.6 g
  ALP: 906.2 IU/L
  ALT: 35.8 IU/L
  AST: 68 IU/L
  BUN: 12.4 mg/dL
  CRE: 0.4 mg/dL
  Ca: 10.5 mg/dL
  Cl: 104 meq/L
  DBIL: 0.026 mg/dL
  GLC: 186.8 mg/dL
  IP: 9.8 mg/dL
  K: 4.5 meq/L
  LDH: 112.4 IU/L
  Na: 141 meq/L
  PL: 132 mg/dL
  RALB: 3.3 g/dL
  TBIL: 0.3 mg/dL
  TC: 71.2 mg/dL
  TG: 39.4 mg/dL
  TP: 5.2 g/dL
  gamma-GTP: 2 IU/L
[6]
  TERMINAL_BW: 200.5 g
  APTT: 16.7 s
  Bas: 0%
  Eos: 0.6%
  Fbg: 194.4 mg/dL
  Hb: 13.4 g/dL
  Ht: 39.7%
  Lym: 74.4%
  MCH: 22.1 pg
  MCHC: 33.8%
  MCV: 65.4 fL
  Mono: 10.6%
  Neu: 14.6%
  PT: 11.9 s
  Plat: 114.8 x10_4/uL
  RBC: 606.4 x10_4/ul
  Ret: 11.1%
  WBC: 76.4 x10_2/uL
  KIDNEY_L: 0.9 g
  KIDNEY_R: 0.9 g
  KIDNEY_TOTAL: 1.8 g
  LIVER: 8.9 g
  ALP: 782.6 IU/L
  ALT: 31.6 IU/L
  AST: 65.8 IU/L
  BUN: 11 mg/dL
  CRE: 0.6 mg/dL
  Ca: 10.4 mg/dL
  Cl: 104 meq/L
  DBIL: 0.006 mg/dL
  GLC: 193.6 mg/dL
  IP: 10.5 mg/dL
  K: 4.8 meq/L
  LDH: 105.4 IU/L
  Na: 140 meq/L
  PL: 140.2 mg/dL
  RALB: 3.3 g/dL
  TBIL: 0.3 mg/dL
  TC: 82.8 mg/dL
  TG: 39 mg/dL
  TP: 5.2 g/dL
  gamma-GTP: 1 IU/L
[7]
  TERMINAL_BW: 193.9 g
  APTT: 17.2 s
  Bas: 0%
  Eos: 0.6%
  Fbg: 201 mg/dL
  Hb: 13.8 g/dL
  Ht: 41.4%
  Lym: 86.4%
  MCH: 21.9 pg
  MCHC: 33.4%
  MCV: 65.7 fL
  Mono: 3.8%
  Neu: 9.2%
  PT: 11.3 s
  Plat: 117 x10_4/uL
  RBC: 630.4 x10_4/ul
  Ret: 8.4%
  WBC: 65.4 x10_2/uL
  KIDNEY_L: 0.9 g
  KIDNEY_R: 0.9 g
  KIDNEY_TOTAL: 1.8 g
  LIVER: 8.3 g
  ALP: 794 IU/L
  ALT: 29.4 IU/L
  AST: 63.4 IU/L
  BUN: 13.2 mg/dL
  CRE: 0.5 mg/dL
  Ca: 10.6 mg/dL
  Cl: 105.4 meq/L
  DBIL: 0.022 mg/dL
  GLC: 212.6 mg/dL
  IP: 10.1 mg/dL
  K: 4.7 meq/L
  LDH: 81.4 IU/L
  Na: 142.2 meq/L
  PL: 124.6 mg/dL
  RALB: 3.5 g/dL
  TBIL: 0.4 mg/dL
  TC: 67.6 mg/dL
  TG: 26.4 mg/dL
  TP: 5.4 g/dL
  gamma-GTP: 1.8 IU/L
[8]
  TERMINAL_BW: 205.7 g
  APTT: 16.4 s
  Bas: 0%
  Eos: 1%
  Fbg: 207 mg/dL
  Hb: 13.6 g/dL
  Ht: 40.4%
  Lym: 82.6%
  MCH: 21.5 pg
  MCHC: 33.6%
  MCV: 63.9 fL
  Mono: 9%
  Neu: 7.4%
  PT: 11.9 s
  Plat: 111.5 x10_4/uL
  RBC: 634 x10_4/ul
  Ret: 6.1%
  WBC: 56.3 x10_2/uL
  KIDNEY_L: 1 g
  KIDNEY_R: 1 g
  KIDNEY_TOTAL: 1.9 g
  LIVER: 8.8 g
  ALP: 979.6 IU/L
  ALT: 32 IU/L
  AST: 66.6 IU/L
  CRE: 0.5 mg/dL
  Ca: 10.9 mg/dL
  Cl: 104.8 meq/L
  DBIL: 0.01 mg/dL
  GLC: 182.8 mg/dL
  IP: 9.2 mg/dL
  K: 5 meq/L
  LDH: 103.4 IU/L
  Na: 140.2 meq/L
  PL: 136.6 mg/dL
  RALB: 3.5 g/dL
  TBIL: 0.3 mg/dL
  TC: 81 mg/dL
  TG: 47.6 mg/dL
  TP: 5.6 g/dL
  gamma-GTP: 1.6 IU/L
